This note sets out measurements from US7163946B2 (Ligand Pharmaceuticals Incorporated, priority 2002, dated 2007).

In one assay the target is T1, hPR (Homo sapiens, UniProt P06401).
T1 sequence (P06401 679-933 limits assumed): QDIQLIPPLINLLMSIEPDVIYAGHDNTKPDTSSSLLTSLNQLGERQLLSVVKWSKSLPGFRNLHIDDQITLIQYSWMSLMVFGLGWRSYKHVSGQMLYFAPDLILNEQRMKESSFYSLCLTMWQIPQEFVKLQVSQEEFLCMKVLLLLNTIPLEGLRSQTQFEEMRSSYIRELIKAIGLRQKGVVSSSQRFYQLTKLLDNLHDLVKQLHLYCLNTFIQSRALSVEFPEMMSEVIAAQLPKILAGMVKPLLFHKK
Kind of assay: T47D alkaline phosphatase assay, antagonist mode. The conditions noted are these: T47D human breast cancer cells; read-out: hPR Antagonists T47D Cells Eff. (%). Type of assay: cell-based.
Source text: (§1) The potential tissue-selectivities of the selected analogues were examined by using the T47D alkaline phosphatase assay that was developed from human breast cancer cells with endogenous PRs.
Turning to `CC1=CC(C)(C)Nc2ccc3c(c21)C(c1ccc(Cl)c(C)c1)Oc1c(F)cc(F)cc1-3` (single isomer, unassigned; (+)) [Compound 39, (+)-7,9-difluoro-5-(4-chloro-3-methylphenyl)-1,2-dihydro-2,2,4-trimethyl-5H-chromeno[3,4-f]quinoline], the Emax came to 29%.

Still in this assay, the particulars now being: T47D human breast cancer cells; read-out: hPR Antagonists T47D Cells IC50.
Regarding `CC1=CC(C)(C)Nc2ccc3c(c21)C(c1ccc(Cl)c(C)c1)Oc1c(F)cc(F)cc1-3` (single isomer, unassigned; (+)) [Compound 39, (+)-7,9-difluoro-5-(4-chloro-3-methylphenyl)-1,2-dihydro-2,2,4-trimethyl-5H-chromeno[3,4-f]quinoline], the half-maximal inhibitory concentration (IC50) stood at 4100 nM.

The next assay concerns the target T1, hPR. Kind of assay: T47D alkaline phosphatase assay, agonist mode. Particulars: T47D human breast cancer cells. The format is cell-based.
Source text: as §1
Consider `CC1=CC(C)(C)Nc2ccc3c(c21)C(c1ccc(Cl)c(C)c1)Oc1c(F)cc(F)cc1-3` (single isomer, unassigned; (+)) [Compound 39, (+)-7,9-difluoro-5-(4-chloro-3-methylphenyl)-1,2-dihydro-2,2,4-trimethyl-5H-chromeno[3,4-f]quinoline], for which the 50% effective concentration (EC50) was more than 10000 nM; the “hPR Agonist T47D cells Eff. (%)” value is “na (na = not active (i.e. efficacy of <20 and potency of >10,000))”.

The target in the next assay is T2, hPR (Homo sapiens, UniProt P06401).
T2 sequence (P06401 1-933): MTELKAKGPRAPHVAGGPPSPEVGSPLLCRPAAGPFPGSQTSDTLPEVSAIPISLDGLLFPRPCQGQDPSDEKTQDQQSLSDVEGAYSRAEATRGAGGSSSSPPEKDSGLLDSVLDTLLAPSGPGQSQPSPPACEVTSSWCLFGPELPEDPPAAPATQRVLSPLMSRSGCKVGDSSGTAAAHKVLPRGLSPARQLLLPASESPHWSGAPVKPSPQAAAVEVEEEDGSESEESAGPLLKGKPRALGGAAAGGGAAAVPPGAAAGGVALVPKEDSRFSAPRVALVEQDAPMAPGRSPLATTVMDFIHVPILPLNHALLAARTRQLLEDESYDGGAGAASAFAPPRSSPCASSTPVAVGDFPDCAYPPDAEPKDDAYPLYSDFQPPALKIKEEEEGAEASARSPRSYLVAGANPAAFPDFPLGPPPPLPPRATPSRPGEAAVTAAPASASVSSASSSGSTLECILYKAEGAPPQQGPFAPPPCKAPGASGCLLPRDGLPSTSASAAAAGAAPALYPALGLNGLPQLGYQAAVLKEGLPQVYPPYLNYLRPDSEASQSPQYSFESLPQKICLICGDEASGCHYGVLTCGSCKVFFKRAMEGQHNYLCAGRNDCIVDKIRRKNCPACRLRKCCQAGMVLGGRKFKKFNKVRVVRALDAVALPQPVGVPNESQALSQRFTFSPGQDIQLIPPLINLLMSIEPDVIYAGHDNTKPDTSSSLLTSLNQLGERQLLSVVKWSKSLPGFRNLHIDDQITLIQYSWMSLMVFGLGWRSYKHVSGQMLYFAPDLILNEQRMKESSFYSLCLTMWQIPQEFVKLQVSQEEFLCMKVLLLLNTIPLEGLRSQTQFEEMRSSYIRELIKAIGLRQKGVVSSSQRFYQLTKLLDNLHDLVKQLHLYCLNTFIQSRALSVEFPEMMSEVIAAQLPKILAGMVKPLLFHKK
Kind of assay: hPR cotransfection assay in CV-1 cells, antagonist mode. The format is cell-based. The conditions noted are these: CV-1 cells.
Procedure: (§2) Antagonist efficacy was determined as a function (%) of maximal inhibition of a reference agonist at EC50 concentration. All the cotransfection experiments were carried out in 96-well plates by automation (Beckman Biomomek automated workstation).
`CC1=CC(C)(C)Nc2ccc3c(c21)C(c1ccc(Cl)c(C)c1)Oc1c(F)cc(F)cc1-3` (single isomer, unassigned; (+)) [Compound 39, (+)-7,9-difluoro-5-(4-chloro-3-methylphenyl)-1,2-dihydro-2,2,4-trimethyl-5H-chromeno[3,4-f]quinoline] came in with a concentration for half-maximal inhibition (IC50) of 24 nM.

Staying with this assay, now noted: CV-1 cells; maximal inhibition of reference agonist at EC50 concentration.
On to `CC1=CC(C)(C)Nc2ccc3c(c21)C(c1ccc(Cl)c(C)c1)Oc1c(F)cc(F)cc1-3` (single isomer, unassigned; (+)) [Compound 39, (+)-7,9-difluoro-5-(4-chloro-3-methylphenyl)-1,2-dihydro-2,2,4-trimethyl-5H-chromeno[3,4-f]quinoline], for which the “hPR Antagonist CV-1 Cells Eff. (%)” value is 62%.

Another assay addresses T2, hPR. The assay can be described thus: hPR cotransfection assay in CV-1 cells, agonist mode. The format is cell-based. Particulars: CV-1 cells; read-out: hPR Agonist CV-1 Cells EC50.
Procedure: as §2
With `CC1=CC(C)(C)Nc2ccc3c(c21)C(c1ccc(Cl)c(C)c1)Oc1c(F)cc(F)cc1-3` (single isomer, unassigned; (+)) [Compound 39, (+)-7,9-difluoro-5-(4-chloro-3-methylphenyl)-1,2-dihydro-2,2,4-trimethyl-5H-chromeno[3,4-f]quinoline], the 50% effective concentration (EC50) amounted to 28 nM.

Still in this assay, the particulars now being: CV-1 cells; relative to maximal response of progesterone as 100%.
Turning to `CC1=CC(C)(C)Nc2ccc3c(c21)C(c1ccc(Cl)c(C)c1)Oc1c(F)cc(F)cc1-3` (single isomer, unassigned; (+)) [Compound 39, (+)-7,9-difluoro-5-(4-chloro-3-methylphenyl)-1,2-dihydro-2,2,4-trimethyl-5H-chromeno[3,4-f]quinoline], the “hPR Agonist CV-1 Cells Eff. (%)” value came to 26%.

Still in this assay, the particulars now being: Tables 3 and 4, values without footnote; read-out: hPR agonist potencies (EC50 in nM) in the cotransfection assay.
On to `COc1ccc2c(c1)O/C(=C\c1ccccc1Cl)c1c-2ccc2c1C(C)=CC(C)(C)N2` [Formula II X=8-OMe 2-Cl-Ph, reference compound], for which the EC50 was more than 1000 nM. Turning to `COc1ccc2c(c1)O/C(=C\c1ccccc1F)c1c-2ccc2c1C(C)=CC(C)(C)N2` [Formula II X=8-OMe 2-F-Ph, reference compound], the 50% effective concentration (EC50) stood at 45 nM. In the case of `COc1ccc2c(c1)O/C(=C\c1ccccc1C)c1c-2ccc2c1C(C)=CC(C)(C)N2` [Formula II X=8-OMe 2-Me-Ph, reference compound], the EC50 worked out at 3.5 nM. As to `COc1ccc2c(c1)O/C(=C\c1ccccc1OC)c1c-2ccc2c1C(C)=CC(C)(C)N2` [Formula II X=8-OMe 2-MeO-Ph, reference compound], the concentration for a half-maximal effect (EC50) stood at 24 nM.

With `COc1ccc2c(c1)O/C(=C\c1cccc(F)c1)c1c-2ccc2c1C(C)=CC(C)(C)N2` [Formula II X=8-OMe 3-F-Ph, reference compound], the half-maximal effective concentration (EC50) is 8.6 nM. `COc1ccc2c(c1)O/C(=C\c1ccncc1C)c1c-2ccc2c1C(C)=CC(C)(C)N2` [Formula II X=8-OMe 3-Me-4-pyridinyl, reference compound]: the EC50 came out at 24 nM.

`COc1ccc2c(c1)O/C(=C\c1ccncc1)c1c-2ccc2c1C(C)=CC(C)(C)N2` [Formula II X=8-OMe 4-pyridinyl, reference compound]: the concentration giving a half-maximal response (EC50) worked out at 36 nM. For the compound `COc1ccc2c(c1)O/C(=C\c1ccccc1)c1c-2ccc2c1C(C)=CC(C)(C)N2` [Formula II X=8-OMe Phenyl, reference compound], the 50% effective concentration (EC50) stood at 5.5 nM. As to `CC1=CC(C)(C)Nc2ccc3c(c21)/C(=C/c1cc(F)ccc1F)Oc1ccc(Cl)cc1-3` [Formula II X=9-Cl 2,5-diF-Ph, reference compound], the EC50 was found to be 25 nM.

With `CC1=CC(C)(C)Nc2ccc3c(c21)/C(=C/c1ccccc1F)Oc1ccc(Cl)cc1-3` [Formula II X=9-Cl 2-F-Ph, reference compound], the EC50 was 26.5 nM. Turning to `CC1=CC(C)(C)Nc2ccc3c(c21)/C(=C/c1cc(F)ccc1C)Oc1ccc(Cl)cc1-3` [Formula II X=9-Cl 2-Me-5-F-Ph, reference compound], the half-maximal effective concentration (EC50) worked out at 2.1 nM. The same measure, in the same setting: to `CC1=CC(C)(C)Nc2ccc3c(c21)/C(=C/c1ccccc1C)Oc1ccc(Cl)cc1-3` [Formula II X=9-Cl 2-Me-Ph, reference compound] belongs 8.5 nM; to `CC1=CC(C)(C)Nc2ccc3c(c21)/C(=C/c1cccc(F)c1)Oc1ccc(Cl)cc1-3` [Formula II X=9-Cl 3-F-Ph, reference compound], 11.6 nM; to `CC1=CC(C)(C)Nc2ccc3c(c21)/C(=C/c1ccccc1)Oc1ccc(Cl)cc1-3` [Formula II X=9-Cl Phenyl, reference compound], 6.24 nM. On to `CC1=CC(C)(C)Nc2ccc3c(c21)/C(=C/c1cc(F)ccc1F)Oc1ccc(F)cc1-3` [Formula II X=9-F 2,5-diF-Ph, reference compound], for which the 50% effective concentration (EC50) is 3 nM.

On to `CC1=CC(C)(C)Nc2ccc3c(c21)/C(=C/c1ccccc1Cl)Oc1ccc(F)cc1-3` [Formula II X=9-F 2-Cl-Ph, reference compound], for which the 50% effective concentration (EC50) was 12 nM.

For the compound `CC1=CC(C)(C)Nc2ccc3c(c21)/C(=C/c1ccccc1F)Oc1ccc(F)cc1-3` [Formula II X=9-F 2-F-Ph, reference compound], the EC50 was found to be 7.3 nM.

Regarding `CC1=CC(C)(C)Nc2ccc3c(c21)/C(=C/c1cccc(F)c1C)Oc1ccc(F)cc1-3` [Formula II X=9-F 2-Me-3-F-Ph, reference compound], the EC50 came to 8.4 nM.

With `CC1=CC(C)(C)Nc2ccc3c(c21)/C(=C/c1cc(F)ccc1C)Oc1ccc(F)cc1-3` [Formula II X=9-F 2-Me-5-F-Ph, reference compound], the concentration for a half-maximal effect (EC50) amounted to 2.1 nM. With `COc1ccc(F)cc1/C=C1\Oc2ccc(F)cc2-c2ccc3c(c21)C(C)=CC(C)(C)N3` [Formula II X=9-F 2-MeO-5-F-Ph, reference compound], the EC50 was 0.9 nM. Regarding `COc1ccccc1/C=C1\Oc2ccc(F)cc2-c2ccc3c(c21)C(C)=CC(C)(C)N3` [Formula II X=9-F 2-MeO-Ph, reference compound], the half-maximal effective concentration (EC50) worked out at 0.93 nM. Take `CC1=CC(C)(C)Nc2ccc3c(c21)/C(=C/c1cccs1)Oc1ccc(F)cc1-3` [Formula II X=9-F 2-Thienyl, reference compound]: the EC50 stood at 18 nM.

On to `CC1=CC(C)(C)Nc2ccc3c(c21)/C(=C/c1ccncc1C)Oc1ccc(F)cc1-3` [Formula II X=9-F 3-Me-4-pyridinyl, reference compound], for which the EC50 stood at 2 nM.

In the case of `CC1=CC(C)(C)Nc2ccc3c(c21)/C(=C/c1ccc(F)cc1)Oc1ccc(F)cc1-3` [Formula II X=9-F 4-F-Ph, reference compound], the EC50 is 3.95 nM.

Consider `CC1=CC(C)(C)Nc2ccc3c(c21)/C(=C/c1ccccc1)Oc1ccc(F)cc1-3` [Formula II X=9-F Phenyl, reference compound], for which the concentration giving a half-maximal response (EC50) worked out at 5.25 nM.

Take `CC1=CC(C)(C)Nc2ccc3c(c21)/C(=C/c1cccc(F)c1)Oc1ccc(C)cc1-3` [Formula II X=9-Me 3-F-Ph, reference compound]: the EC50 came out at 7.95 nM. `CC1=CC(C)(C)Nc2ccc3c(c21)/C(=C/c1cc(F)ccc1F)Oc1ccc(O)cc1-3` [Formula II X=9-OH 2,5-diF-Ph, reference compound]: the EC50 came out at 10 nM. Turning to `CC1=CC(C)(C)Nc2ccc3c(c21)/C(=C/c1ccccc1C)Oc1ccc(O)cc1-3` [Formula II X=9-OH 2-Me-Ph, reference compound], the concentration giving a half-maximal response (EC50) worked out at 9.3 nM. `COc1ccc(F)cc1/C=C1\Oc2ccc(O)cc2-c2ccc3c(c21)C(C)=CC(C)(C)N3` [Formula II X=9-OH 2-MeO-5-F-Ph, reference compound]: the EC50 came to 11.5 nM. On to `CC1=CC(C)(C)Nc2ccc3c(c21)/C(=C/c1cccc(F)c1)Oc1ccc(O)cc1-3` [Formula II X=9-OH 3-F-Ph, reference compound], for which the EC50 turned out to be 5.75 nM. As to `CC1=CC(C)(C)Nc2ccc3c(c21)/C(=C/c1ccccc1)Oc1ccc(O)cc1-3` [Formula II X=9-OH Phenyl, reference compound], the half-maximal effective concentration (EC50) is 54.4 nM. For the compound `COc1ccc2c(c1)-c1ccc3c(c1/C(=C/c1ccccc1C)O2)C(C)=CC(C)(C)N3` [Formula II X=9-OMe 2-Me-Ph, reference compound], the EC50 turned out to be 67.5 nM. Still for that read-out and setting: to `COc1ccc2c(c1)-c1ccc3c(c1/C(=C/c1ccccc1)O2)C(C)=CC(C)(C)N3` [Formula II X=9-OMe Phenyl, reference compound] belongs 67 nM; to `CC1=CC(C)(C)Nc2ccc3c(c21)/C(=C/c1cc(F)ccc1C)Oc1ccccc1-3` [Formula II X=H 2-Me-5-F-Ph, reference compound], 2.6 nM.

Usually IC50 stands for the concentration that inhibits the measured activity by half. One may read the EC50 as the concentration giving half of the maximal effect.
